Experimental data reported in patent publication US20140065075A1, “TARGETED CONTRAST AGENTS AND USES THEREOF” (RF THERAPEUTICS INC., priority 2011, published 2014).

System: necrotic tissue (infarcted myocardial tissue)
Assay: MRI analysis of contrast agents in vivo: rats, left main coronary artery ligation and reperfusion, MR images compared with tissue histology
Parameters: species or system rat
Description: Contrast agents were prepared following the methods outlined in Examples 1-11 above. Rats (250-300 g—obtained from where?) were used for the following studies detailed below.
Rats were anesthetized by administration of isoflurane (5% induction, 1-2% maintenance) and positioned in an animal holder. The blood pressure and heart rate of the rats were monitored prior to ligation to provide a baseline condition. The rats were subjected to ligation of the left main coronary artery under aseptic conditions. During the ligation, the left thoracic cage of the rat, at the 4th intercostal space was opened to expose the heart muscle. The pericardial sac was cut open and the left main coronary artery was ligated at 2-4 mm from its origin using 6-0 prolene for a period of 2 h. The ligature was then removed to allow for the reperfusion of the infarcted myocardial tissue. Following the ligation procedure, bupivacaine and Cicatrin were applied to the incision. […]
The contrast agent was the intravenously injected 4 hours following the start of myocardial reperfusion. The blood pressure and heart rate were monitored during the ligation procedure and the administration of the contrast agent. The body temperature of the rats was monitored with a rectal probe and maintained at the physiological level by the circulating warm water. […]

In the case of `O=C([O-])CN(CCN(CCN(CC(=O)[O-])CC(=O)Nc1ccc(NC(=O)CN(CCN(CCN(CC(=O)[O-])CC(=O)O)CC(=O)O)CC(=O)[O-])cc1)CC(=O)O)CC(=O)[O-].[Na+].[Na+].[Na+].[Na+].[Na+]` [RF 1002], the “contrast enhancement in MR images versus necrotic tissue visible by staining of the tissue sample (binding to necrotic tissue)” value (5 mg/kg and 40 mg/kg intravenous 4 hours after start of reperfusion, 7 Tesla MRI about 4 to 16 hours after administration) is reported as “necrotic tissue visible by staining of the tissue sample corresponds to the same region exhibiting contrast enhancement in the MR images” and the “visibility of contrast enhancement on the MRI, dose comparison” value (40 mg/kg versus 5 mg/kg intravenous) is reported as “more defined at the higher dosage of contrast agent”.
